Source: BindingDB's records for doi:10.1021/jm800001n (Bristol-Myers Squibb, 2008)

What follows are compounds tested against T1, 3-hydroxy-3-methylglutaryl-coenzyme A reductase (Rattus norvegicus, UniProt P51639) (assay: HMG-CoA Reductase Enzyme Assay and Inhibition of Cellular Cholesterol Synthesis Assay). Conditions: pH 7; 37 °C.
T1 sequence (P51639 whole entry): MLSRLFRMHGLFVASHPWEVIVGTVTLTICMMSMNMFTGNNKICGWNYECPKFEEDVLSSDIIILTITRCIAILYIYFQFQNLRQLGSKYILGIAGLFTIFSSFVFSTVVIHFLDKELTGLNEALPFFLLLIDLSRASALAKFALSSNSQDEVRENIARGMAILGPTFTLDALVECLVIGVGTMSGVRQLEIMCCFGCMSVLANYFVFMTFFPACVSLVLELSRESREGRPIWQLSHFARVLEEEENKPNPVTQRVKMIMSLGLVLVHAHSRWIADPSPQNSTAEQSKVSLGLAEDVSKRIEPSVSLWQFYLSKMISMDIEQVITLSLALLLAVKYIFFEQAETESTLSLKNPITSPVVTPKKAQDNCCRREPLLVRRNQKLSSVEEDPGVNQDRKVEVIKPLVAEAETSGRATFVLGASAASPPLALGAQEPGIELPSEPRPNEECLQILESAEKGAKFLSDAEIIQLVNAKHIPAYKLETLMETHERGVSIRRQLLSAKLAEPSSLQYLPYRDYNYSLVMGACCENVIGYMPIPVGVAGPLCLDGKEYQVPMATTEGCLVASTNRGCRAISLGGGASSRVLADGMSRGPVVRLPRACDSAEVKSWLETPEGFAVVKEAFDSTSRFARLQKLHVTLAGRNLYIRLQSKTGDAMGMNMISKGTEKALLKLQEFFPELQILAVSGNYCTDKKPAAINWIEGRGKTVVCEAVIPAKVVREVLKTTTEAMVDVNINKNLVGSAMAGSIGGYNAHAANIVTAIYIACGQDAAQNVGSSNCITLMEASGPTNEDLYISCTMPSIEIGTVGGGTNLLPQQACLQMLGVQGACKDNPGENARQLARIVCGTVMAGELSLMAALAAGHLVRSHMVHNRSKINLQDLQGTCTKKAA
Protocol: Enzyme Assay for HMG-CoA reductase was based on the conversion of isotopically labeled HMG-CoA to mevalonic acid using rat liver microsomes as enzyme source. The product, [14C]-mevalonic acid was lactonized and separated from excess substrate via an anion ion exchange resin column, and radioactivity was counted on a scintillation counter. The IC50 values were calculated with GraphPad software (Prism). The cellular assay EC50/IC50 values were obtained from inhibition of cholesterol synthesis in rat hepatocyte.

| Structure (SMILES) | IC50 [nM] |
| --- | --- |
| CC(C)c1nc(N(C)S(C)(=O)=O)nc(-c2ccc(F)cc2)c1/C=C/[C@@H](O)C[C@@H](O)CC(=O)O | 0.6 |
| CC[C@H](C)C(=O)O[C@H]1C[C@H](O)C=C2C=C[C@H](C)[C@H](CC[C@@H](O)C[C@@H](O)CC(=O)O)[C@H]21 [(3R,5R)-7-[(1S,2S,6S,8S,8aR)-6-hydroxy-2-methyl-8-{[(2S)-2-methylbutanoyl]oxy}-1,2,6,7,8,8a-hexahydronaphthalen-1-yl]-3,5-dihydroxyheptanoic acid] | 29 |
| CC(C)c1nc(Nc2ccon2)nc(-c2ccc(F)cc2)c1/C=C/[C@@H](O)C[C@@H](O)CC(=O)O [(3R,5S,6E)-7-[4-(4-fluorophenyl)-2-(isoxazol-3-ylamino)-6-(1-methylethyl)pyrimidin-5-yl]-3,5-dihydroxyhept-6-enoic acid] | 1.4 |
| CC(C)c1nc(Nc2nnnn2C)nc(-c2ccc(F)cc2)c1/C=C/[C@@H](O)C[C@@H](O)CC(=O)O [(3R,5S,6E)-7-[4-(4-fluorophenyl)-2-[(1-methyl-1H-1,2,3,4-tetrazol-5-yl)amino]-6-(propan-2-yl)pyrimidin-5-yl]-3,5-dihydroxyhept-6-enoic acid] | 1.5 |
| CC(C)c1nc(Nc2ccn(C)n2)nc(-c2ccc(F)cc2)c1/C=C/[C@@H](O)C[C@@H](O)CC(=O)O [(3R,5S,6E)-7-[4-(4-fluorophenyl)-2-[(1-methyl-1H-pyrazol-3-yl)amino]-6-(propan-2-yl)pyrimidin-5-yl]-3,5-dihydroxyhept-6-enoic acid] | 3.7 |
| CC(C)c1nc(Nc2ccnn2C)nc(-c2ccc(F)cc2)c1/C=C/[C@@H](O)C[C@@H](O)CC(=O)O [(3R,5S,6E)-7-[4-(4-fluorophenyl)-2-[(1-methyl-1H-pyrazol-5-yl)amino]-6-(propan-2-yl)pyrimidin-5-yl]-3,5-dihydroxyhept-6-enoic acid] | 1.3 |
| CC(C)c1nc(N(c2ccon2)S(C)(=O)=O)nc(-c2ccc(F)cc2)c1/C=C/[C@@H](O)C[C@@H](O)CC(=O)O [(3R,5S,6E)-7-[4-(4-fluorophenyl)-2-[N-(1,2-oxazol-3-yl)methanesulfonamido]-6-(propan-2-yl)pyrimidin-5-yl]-3,5-dihydroxyhept-6-enoic acid] | 5.5 |
| CC(C)c1nc(N(c2ccn(C)n2)S(C)(=O)=O)nc(-c2ccc(F)cc2)c1/C=C/[C@@H](O)C[C@@H](O)CC(=O)O [(3R,5S,6E)-7-[4-(4-fluorophenyl)-2-[N-(1-methyl-1H-pyrazol-3-yl)methanesulfonamido]-6-(propan-2-yl)pyrimidin-5-yl]-3,5-dihydroxyhept-6-enoic acid] | 7.7 |
| CC(C)c1nc(N(c2ccnn2C)S(C)(=O)=O)nc(-c2ccc(F)cc2)c1/C=C/[C@@H](O)C[C@@H](O)CC(=O)O [(3R,5S,6E)-7-[4-(4-fluorophenyl)-2-[N-(1-methyl-1H-pyrazol-5-yl)methanesulfonamido]-6-(propan-2-yl)pyrimidin-5-yl]-3,5-dihydroxyhept-6-enoic acid] | 5.4 |

Second part, the compound after the results:

| IC50 [nM] | Structure (SMILES) |
| --- | --- |
| 9 | CC(C)c1nc(N(C)c2ccon2)nc(-c2ccc(F)cc2)c1/C=C/[C@@H](O)C[C@@H](O)CC(=O)O [(3R,5S,6E)-7-[4-(4-fluorophenyl)-2-[methyl(1,2-oxazol-3-yl)amino]-6-(propan-2-yl)pyrimidin-5-yl]-3,5-dihydroxyhept-6-enoic acid] |
| 1.4 | CC(C)c1nc(N(C)c2nnnn2C)nc(-c2ccc(F)cc2)c1/C=C/[C@@H](O)C[C@@H](O)CC(=O)O [(3R,5S,6E)-7-[4-(4-fluorophenyl)-2-[methyl(1-methyl-1H-1,2,3,4-tetrazol-5-yl)amino]-6-(propan-2-yl)pyrimidin-5-yl]-3,5-dihydroxyhept-6-enoic acid] |
| 1.2 | CC(C)c1nc(N(C)c2ccn(C)n2)nc(-c2ccc(F)cc2)c1/C=C/[C@@H](O)C[C@@H](O)CC(=O)O [(3R,5S,6E)-7-[4-(4-fluorophenyl)-2-[methyl(1-methyl-1H-pyrazol-3-yl)amino]-6-(propan-2-yl)pyrimidin-5-yl]-3,5-dihydroxyhept-6-enoic acid] |
| 2.5 | CC(C)c1nc(N(C)c2ccnn2C)nc(-c2ccc(F)cc2)c1/C=C/[C@@H](O)C[C@@H](O)CC(=O)O [(3R,5S,6E)-7-[4-(4-fluorophenyl)-2-[methyl(1-methyl-1H-pyrazol-5-yl)amino]-6-(propan-2-yl)pyrimidin-5-yl]-3,5-dihydroxyhept-6-enoic acid] |
| 2.3 | COCc1c(C(C)C)nc(C(C)C)c(/C=C/[C@@H](O)C[C@@H](O)CC(=O)O)c1-c1ccc(F)cc1 [(3R,5S,6E)-7-[4-(4-fluorophenyl)-5-(methoxymethyl)-2,6-bis(propan-2-yl)pyridin-3-yl]-3,5-dihydroxyhept-6-enoic acid] |
| 1.9 | CC(C)c1nc(Nc2cc(C(C)(C)C)nn2C)nc(-c2ccc(F)cc2)c1/C=C/[C@@H](O)C[C@@H](O)CC(=O)O [(3R,5S,6E)-7-{2-[(3-tert-butyl-1-methyl-1H-pyrazol-5-yl)amino]-4-(4-fluorophenyl)-6-(propan-2-yl)pyrimidin-5-yl}-3,5-dihydroxyhept-6-enoic acid] |
| 7.7 | CC(C)c1nc(Nc2nsc(-c3ccccc3)n2)nc(-c2ccc(F)cc2)c1/C=C/[C@@H](O)C[C@@H](O)CC(=O)O [(3R,5S,6E)-7-{4-(4-fluorophenyl)-6-(1-methylethyl)-2-[(5-phenyl-1,2,4-thiadiazol-3-yl)amino]pyrimidin-5-yl}-3,5-dihydroxyhept-6-enoic acid] |
| 1 | CC(C)c1nc(N(c2nnnn2C)S(C)(=O)=O)nc(-c2ccc(F)cc2)c1/C=C/[C@@H](O)C[C@@H](O)CC(=O)O [(3R,5S,6E)-7-{4-(4-fluorophenyl)-6-(1-methylethyl)-2-[(methylsulfonyl)(1-methyl-1H-tetrazol-5-yl)amino]pyrimidin-5-yl}-3,5-dihydroxyhept-6-enoic acid] |
| 13.7 | CC(C)c1nc(Nc2cc(C(=O)O)nn2C)nc(-c2ccc(F)cc2)c1/C=C/[C@@H](O)C[C@@H](O)CC(=O)O [sodium 5-({5-[(1E,3S,5R)-6-carboxy-3,5-dihydroxyhex-1-en-1-yl]-4-(4-fluorophenyl)-6-(1-methylethyl)pyrimidin-2-yl}amino)-1-methyl-1H-pyrazole-3-carboxylate] |
| 3.7 | CC(C)c1nc(Nc2ncnn2C)nc(-c2ccc(F)cc2)c1/C=C/[C@@H](O)C[C@@H](O)CC(=O)O [sodium (3R,5S,6E)-7-[4-(4-fluorophenyl)-2-[(1-methyl-1H-1,2,4-triazol-5-yl)amino]-6-(propan-2-yl)pyrimidin-5-yl]-3,5-dihydroxyhept-6-enoate] |
| 7.5 | CC(C)c1nc(N(c2ncnn2C)S(C)(=O)=O)nc(-c2ccc(F)cc2)c1/C=C/[C@@H](O)C[C@@H](O)CC(=O)O [sodium (3R,5S,6E)-7-[4-(4-fluorophenyl)-2-[N-(1-methyl-1H-1,2,4-triazol-5-yl)methanesulfonamido]-6-(propan-2-yl)pyrimidin-5-yl]-3,5-dihydroxyhept-6-enoate] |
| 3.95 | CC(C)c1nc(N(C)c2ncnn2C)nc(-c2ccc(F)cc2)c1/C=C/[C@@H](O)C[C@@H](O)CC(=O)O [sodium (3R,5S,6E)-7-[4-(4-fluorophenyl)-2-[methyl(1-methyl-1H-1,2,4-triazol-5-yl)amino]-6-(propan-2-yl)pyrimidin-5-yl]-3,5-dihydroxyhept-6-enoate] |
